This assay has as its target GST-PPARG-LBD (Homo sapiens (Human), UniProt P37231). Put plainly: Lanthascreen PPARG competitive binding assay (Invitrogen, TR-FRET). The conditions noted are these: NA = not active, inc = incomplete curve; for IC50: read-out: IC50 (nM) Lantha. How it is done:
Lanthascreen PPARG Competitive Binding Assay (Invitrogen)
The assay was performed according to manufacturer protocol. A mixture of […], 5 nM Tb-GST-antibody, 5 nM Fluormone Pan-PPAR Green, and serial dilutions of the experimental compound, beginning at 10 μM downwards, was added to wells of black 384-well low-volume plates (Greiner) to a total volume of 18 μL. All dilutions were made in TR-FRET assay buffer C. DMSO at 2% final concentration was used as a no-ligand control. Experiment was performed in triplicate, and incubated for 2 hours in the dark prior to assay read in Perkin Elmer ViewLux ultra HTS microplate reader. FRET signal was measured by excitation at 340 nm and emission at 520 nm for fluorescein and 490 nm for terbium. Fold change over DMSO was calculated using GraphPad Prism Software (La Jolla, Calif.) by calculating 520 nm/490 nm ratio. Graphs were plotted as fold change of FRET signal for compound treatment over DMSO-only control.
(In TR-FRET formats the signal depends on donor and acceptor labels being close together.)

[1] abbreviates: Lanthascreen competitive binding.
Setting [2] is: Lanthascreen PPARG competitive binding.

Where two headings read alike, the source gives them in different places. Where only a bound is given, the exact number is not on record here.

The term IC50 denotes the concentration at which inhibition is half-maximal.

GST-PPARG-LBD, sequence (P37231 238-503): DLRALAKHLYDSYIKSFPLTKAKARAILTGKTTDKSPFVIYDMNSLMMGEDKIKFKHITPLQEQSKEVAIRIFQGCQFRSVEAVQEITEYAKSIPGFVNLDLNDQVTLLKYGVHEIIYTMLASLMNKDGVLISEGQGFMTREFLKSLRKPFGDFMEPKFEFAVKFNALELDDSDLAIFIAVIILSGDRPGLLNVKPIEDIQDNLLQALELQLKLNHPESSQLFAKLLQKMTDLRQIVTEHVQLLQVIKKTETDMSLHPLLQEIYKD

Take `Cc1c(C)n(Cc2ccc(-c3ccccc3S(=O)(=O)NC(C)(C)C)cc2)c2ccc(C(=O)N[C@@H](C)c3cccc(C(C)C)c3)cc12` [Example 246, (S)-1-((2′-(N-(tert-butyl)sulfamoyl)-[1,1′-biphenyl]-4-yl)methyl)-N-(1-(3-isopropylphenyl)ethyl)-2,3-dimethyl-1H-indole-5-carboxamide]: the IC50 under setting [1] is above 1000 nM.
With `Cc1c(C)n(Cc2ccc(-c3ccccc3S(N)(=O)=O)cc2)c2ccc(C(=O)N[C@@H](C)c3cccc(C(C)C)c3)cc12` [Example 247, (S)—N-(1-(3-isopropylphenyl)ethyl)-2,3-dimethyl-1-((2′-sulfamoyl-[1,1′-biphenyl]-4-yl)methyl)-1H-indole-5-carboxamide], under setting [1], the half-maximal inhibitory concentration (IC50) was above 1000 nM.
With `CC(=O)NS(=O)(=O)c1ccccc1-c1ccc(Cn2c(C)c(C)c3cc(C(=O)N[C@@H](C)c4cccc(C(C)C)c4)ccc32)cc1` [Example 248, (S)-1-((2′-(N-acetylsulfamoyl)-[1,1′-biphenyl]-4-yl)methyl)-N-(1-(3-isopropylphenyl)ethyl)-2,3-dimethyl-1H-indole-5-carboxamide], the concentration for half-maximal inhibition (IC50) under setting [1] is above 1000 nM.
`Cc1c(C)n(Cc2ccc(-c3ccccc3C(=O)O)cc2)c2ccc(C(=O)N[C@@H](C)c3ccccc3OC(F)(F)F)cc12` [Example 256, (S)-4′-((2,3-dimethyl-5-(1-(2-(trifluoromethoxy)phenyl)ethylcarbamoyl)-1H-indol-1-yl)methyl)biphenyl-2-carboxylic acid]: the IC50 under setting [1] is 38 nM.
Regarding `Cc1c(C)n(Cc2ccc(-c3ccccc3C(=O)O)cc2)c2ccc(C(=O)N[C@@H](C)c3ccc(S(C)(=O)=O)cc3)cc12` [Example 258, (S)-4′-((2,3-dimethyl-5-(1-(4-(methylsulfonyl)phenyl)ethylcarbamoyl)-1H-indol-1-yl)methyl)biphenyl-2-carboxylic acid], the IC50 under setting [1] was 636 nM.
For the molecule `Cc1c(C)n(Cc2ccc(-c3ccccc3C(=O)O)cc2)c2ccc(C(=O)N[C@@H](C)c3cc(Cl)ccn3)cc12` [Example 265, (S)-4′-((5-((1-(4-chloropyridin-2-yl)ethyl)carbamoyl)-2,3-dimethyl-1H-indol-1-yl)methyl)-[1,1′-biphenyl]-2-carboxylic acid], the IC50 under setting [1] worked out at 4 nM.
Turning to `Cc1c(C)n(Cc2ccc(-c3ccccc3C(=O)O)cc2)c2ccc(C(=O)N[C@H](C)c3ccc(S(C)(=O)=O)cc3)cc12` [Example 276, (R)-4′-((2,3-dimethyl-5-(1-(4-(methylsulfonyl)phenyl)ethylcarbamoyl)-1H-indol-1-yl)methyl)biphenyl-2-carboxylic acid], the IC50 under setting [2] worked out at 11 nM.
Take `Cc1c(C)n(Cc2ccc(-c3ccccc3C#N)cc2)c2ccc(C(=O)N[C@@H](C)c3ccc(C(F)(F)F)cc3)cc12` [Example 277, (S)-1-((2′-cyano-[1,1′-biphenyl]-4-yl)methyl)-2,3-dimethyl-N-(1-(4-(trifluoromethyl)phenyl)ethyl)-1H-indole-5-carboxamide]: under setting [2], the “IC50 (nM) Lantha” value is reported as “inc”.
As to `Cc1c(C)n(Cc2ccc(-c3ccccc3C#N)cc2)c2ccc(C(=O)N[C@@H](C)c3ccc(OC(C)C)cc3)cc12` [Example 278, (S)-1-((2′-cyano-[1,1′-biphenyl]-4-yl)methyl)-N-(1-(4-isopropoxyphenyl)ethyl)-2,3-dimethyl-1H-indole-5-carboxamide], under setting [2], the IC50 was found to be 808 nM.
Turning to `Cc1c(C)n(Cc2ccc(-c3ccccc3C#N)cc2)c2ccc(C(=O)N[C@@H](C)c3ccc(OC(F)(F)F)cc3)cc12` [Example 279, (S)-1-((2′-cyano-[1,1′-biphenyl]-4-yl)methyl)-2,3-dimethyl-N-(1-(4-(trifluoromethoxy)phenyl)ethyl)-1H-indole-5-carboxamide], the “IC50 (nM) Lantha” value under setting [2] was “inc”.
Still for that read-out and setting: under `CCOc1cccc([C@H](C)NC(=O)c2ccc3c(c2)c(C)c(C)n3Cc2ccc(-c3ccccc3C#N)cc2)c1` [Example 280, (S)-1-((2′-cyano-[1,1′-biphenyl]-4-yl)methyl)-N-(1-(3-ethoxyphenyl)ethyl)-2,3-dimethyl-1H-indole-5-carboxamide] stands “inc”; under `Cc1c(C)n(Cc2ccc(-c3ccccc3C#N)cc2)c2ccc(C(=O)N[C@@H](C)c3cccc(Cl)c3)cc12` [Example 281, (S)—N-(1-(3-chlorophenyl)ethyl)-1-((2′-cyano-[1,1′-biphenyl]-4-yl)methyl)-2,3-dimethyl-1H-indole-5-carboxamide], “inc”.
Still for that read-out and setting: under `Cc1c(C)n(Cc2ccc(-c3ccccc3C#N)cc2)c2ccc(C(=O)N[C@@H](C)c3cccc(C(F)(F)F)c3)cc12` [Example 282, (S)-1-((2′-cyano-[1,1′-biphenyl]-4-yl)methyl)-2,3-dimethyl-N-(1-(3-(trifluoromethyl)phenyl)ethyl)-1H-indole-5-carboxamide] stands “inc”; under `Cc1c(C)n(Cc2ccc(-c3ccccc3C#N)cc2)c2ccc(C(=O)N[C@@H](C)c3ccc(Cl)cc3)cc12` [Example 283, (S)—N-(1-(4-chlorophenyl)ethyl)-1-((2′-cyano-[1,1′-biphenyl]-4-yl)methyl)-2,3-dimethyl-1H-indole-5-carboxamide], “inc”; under `Cc1c(C)n(Cc2ccc(-c3ccccc3C#N)cc2)c2ccc(C(=O)N[C@@H](C)c3cccc(Br)c3)cc12` [Example 284, (S)—N-(1-(3-bromophenyl)ethyl)-1-((2′-cyano-[1,1′-biphenyl]-4-yl)methyl)-2,3-dimethyl-1H-indole-5-carboxamide], “inc”.
The same measure, in the same setting: under `COc1ccc([C@H](C)NC(=O)c2ccc3c(c2)c(C)c(C)n3Cc2ccc(-c3ccccc3C#N)cc2)cc1` [Example 285, (S)-1-((2′-cyano-[1,1′-biphenyl]-4-yl)methyl)-N-(1-(4-methoxyphenyl)ethyl)-2,3-dimethyl-1H-indole-5-carboxamide] stands “inc”.
Regarding `Cc1c(C)n(Cc2ccc(-c3ccccc3C#N)cc2)c2ccc(C(=O)N[C@@H](C)c3ccc(F)cc3F)cc12` [Example 286, (S)-1-((2′-cyano-[1,1′-biphenyl]-4-yl)methyl)-N-(1-(2,4-difluorophenyl)ethyl)-2,3-dimethyl-1H-indole-5-carboxamide], the “IC50 (nM) Lantha” value under setting [2] is on record as “inc”.
Still for that read-out and setting: under `Cc1c(C)n(Cc2ccc(-c3ccccc3C#N)cc2)c2ccc(C(=O)N[C@@H](C)c3ccccc3Cl)cc12` [Example 287, (S)—N-(1-(2-chlorophenyl)ethyl)-1-((2′-cyano-[1,1′-biphenyl]-4-yl)methyl)-2,3-dimethyl-1H-indole-5-carboxamide] stands “inc”; under `Cc1ccc([C@H](C)NC(=O)c2ccc3c(c2)c(C)c(C)n3Cc2ccc(-c3ccccc3C#N)cc2)cc1` [Example 288, (S)-1-((2′-cyano-[1,1′-biphenyl]-4-yl)methyl)-2,3-dimethyl-N-(1-(p-tolyl)ethyl)-1H-indole-5-carboxamide], “inc”; under `CCc1ccc([C@H](C)NC(=O)c2ccc3c(c2)c(C)c(C)n3Cc2ccc(-c3ccccc3C#N)cc2)cc1` [Example 289, (S)-1-((2′-cyano-[1,1′-biphenyl]-4-yl)methyl)-N-(1-(4-ethylphenyl)ethyl)-2,3-dimethyl-1H-indole-5-carboxamide], “inc”.
On the same count and under the same terms, under `Cc1c(C)n(Cc2ccc(-c3ccccc3C#N)cc2)c2ccc(C(=O)N[C@@H](C)c3ccc(Cl)c(Cl)c3)cc12` [Example 290, (S)-1-((2′-cyano-[1,1′-biphenyl]-4-yl)methyl)-N-(1-(3,4-dichlorophenyl)ethyl)-2,3-dimethyl-1H-indole-5-carboxamide] stands “inc”.
Same read-out and setting: under `Cc1c(C)n(Cc2ccc(-c3ccccc3C#N)cc2)c2ccc(C(=O)N[C@@H](C)c3ccccc3)cc12` [Example 291, (S)-1-((2′-cyano-[1,1′-biphenyl]-4-yl)methyl)-2,3-dimethyl-N-(1-phenylethyl)-1H-indole-5-carboxamide] stands “inc”.
In the case of `COc1ccccc1[C@H](C)NC(=O)c1ccc2c(c1)c(C)c(C)n2Cc1ccc(-c2ccccc2C#N)cc1` [Example 292, (S)-1-((2′-cyano-[1,1′-biphenyl]-4-yl)methyl)-N-(1-(2-methoxyphenyl)ethyl)-2,3-dimethyl-1H-indole-5-carboxamide], the “IC50 (nM) Lantha” value under setting [2] is given as “inc”.
Still for that read-out and setting: under `Cc1c(C)n(Cc2ccc(-c3ccccc3C#N)cc2)c2ccc(C(=O)N[C@@H](C)c3cccc(F)c3)cc12` [Example 293, (S)-1-((2′-cyano-[1,1′-biphenyl]-4-yl)methyl)-N-(1-(3-fluorophenyl)ethyl)-2,3-dimethyl-1H-indole-5-carboxamide] stands “inc”.
With `Cc1c(C)n(Cc2ccc(-c3ccccc3C(=O)NC3CC3)cc2)c2ccc(C(=O)N[C@@H](C)c3cccc(C(C)C)c3)cc12` [Example 305, (S)-1-((2′-(Cyclopropylcarbamoyl)-[1,1′-biphenyl]-4-yl)methyl)-N-(1-(3-isopropylphenyl)ethyl)-2,3-dimethyl-1H-indole-5-carboxamide], the IC50 under setting [2] is 94 nM.
Still for that read-out and setting: under `Cc1c(C)n(Cc2ccc(-c3ccccc3C(=O)N3CC[C@H](O)C3)cc2)c2ccc(C(=O)N[C@@H](C)c3cccc(C(C)C)c3)cc12` [Example 306, 1-((2′-((S)-3-Hydroxypyrrolidine-1-carbonyl)-[1,1′-biphenyl]-4-yl)methyl)-N-((S)-1-(3-isopropylphenyl)ethyl)-2,3-dimethyl-1H-indole-5-carboxamide] stands above 500 nM.

These data come from patent publication US8957093B2, “N-biphenylmethylindole modulators of PPARG” (The Scripps Research Institute, priority 2011, dated 2015).
